Results: patent publication US10947273B2, “Peptides of use in the preventive and curative treatment of alopecia” (Institut Europeen de Biologie Cellulaire, priority 2015, dated 2021)
Marks after values point to notes of the source that are not given here. The star is where a group is joined. Palmitoyl = CCCCCCCCCCCCCCCC(=O)*

How the values were obtained:
[1] = system: VEGF; experiment: VEGF secretion by NHEM (ELISA/BioPlex); type: cell-based, human; details: 10^−7 M, 48h
Experimental: (§1) NHDF, HFDPC, HHFK and NHEM cells were treated with the peptides studied for 48h. At the end of the treatment, cell supernatants were collected and stored at −80° C. until analysis. The factors of interest secreted into the supernatant were assayed by ELISA® (R&D) or BioPlex® (BioRad®).
(§2) The results are expressed as percent increase in the concentration of the factor present in the supernatant relative to the untreated control. The intensity of the effect varies as a function of the concentration of the peptide studied and of the cell type treated.

[2] = system: NGF; experiment: NGF secretion by NHDF (ELISA/BioPlex); type: cell-based, human; details: 48h
Experimental: as §1, §2

[3] = system: normal human dermal fibroblasts (NHDF); experiment: CellTiter-Blue proliferation of NHDF; type: cell-based; details: 10^−5M, 72 hours
Experimental: Cell proliferation and viability were evaluated in vitro with a kit from Promega, CellTiter-Blue® Cell Viability Assay, for estimating the number of living cells present in the culture. This kit is based on detection, by measurement of fluorescence, of conversion of the dye, resazurin, into a fluorescent product (resorufin) by living and thus metabolically active cells.
The effect of the peptides tested, (1) and (9), at 4 different concentrations (10^−5, 10^−7, 10^−9 and 10^−11M) was examined on five cell types: immortalized human skin keratinocytes (HaCaT), human hair follicular keratinocytes (HHFK), normal human dermal fibroblasts (NHDF), hair follicle dermal papilla cells (HFDPC), and normal human epidermal melanocytes (NHEM) exposed to the molecule studied for 72 hours.

[4] = system: BMP2; experiment: BMP2 secretion by HFDPC (ELISA/BioPlex); type: cell-based, human; details: 10^−5 M, 48h
Experimental: as §1, §2

[5] = system: NGF; experiment: NGF secretion by HHFK (ELISA/BioPlex); type: cell-based, human; details: 10^−7 M, 48h
Experimental: as §1, §2

[6] = system: IGF1; experiment: qPCR (TLDA) IGF1 gene expression in HFDPC; type: cell-based, human; details: peptide 10^−9, 24 hours, relative to untreated controls
Experimental: (§3) To study the effect of 9 peptides on these genes, HFDPC were treated for 24 hours with the molecules tested at 10^−7M and 10^−9M concentrations.
(§4) RNA was extracted and purified from cell pellets using the RNA XS Kit (Macherey-Nagel). RNA quantification was carried out with a NanoDrop device and sample quality was verified on a Bioanalyzer with RNA 6000 Nano chips (Agilent). cDNA was synthesized from 300 ng of RNA using the High-Capacity cDNA Reverse Transcription Kit (LifeTech). Quality-control qPCR assays of the cDNA were carried out in microplates on the reference gene, GAPDH, and the SIRT1 gene.
(§5) Final qPCR experiments were carried out in a 1 μl volume on microfluidic cards (TaqMan Low Density Arrays, LifeTech) and the ABI 7900HT qPCR device. Amplification reactions were performed in duplicate using 1 to 2 ng of cDNA per qPCR reaction and TaqMan Universal Master Mix II (LifeTech).
(§6) Ct values were obtained using the RQ Manager software. For analyses of qPCR results, Ct values were limited to 35 cycles and the duplicate assays are averaged. The GeneXPro software was used for the studies of stability and of selection of the best reference genes. Expression variations are calculated by the relative quantification method and are expressed as percent increase in expression of the gene of interest relative to the untreated controls.

[7] = system: VEGF; experiment: VEGF secretion by NHDF (ELISA/BioPlex); type: cell-based, human; details: 48h
Experimental: as §1, §2

[8] = system: VEGF; experiment: qPCR (TLDA) VEGF gene expression in HFDPC; type: cell-based, human; details: peptide 10^−5 M (table title), 24 hours, relative to untreated controls
Experimental: as §4, §5, §6

[9] = system: KGF; experiment: KGF secretion by HFDPC (ELISA/BioPlex); type: cell-based, human; details: 48h
Experimental: as §1, §2

[10] = system: SCF; experiment: SCF secretion by NHDF (ELISA/BioPlex); type: cell-based, human; details: 10^−5 M, 48h
Experimental: as §1, §2

[11] = system: microdissected hairs from scalp surgery specimens; experiment: Growth of isolated hair ex vivo; type: cell-based, human; details: for Growth at D 11/D 12 Vs Control: ex vivo isolated hair
Experimental: This study was carried out on microdissected hairs from scalp surgery specimens from women aged 52 to 71 years. Isolated hairs were kept alive for 11 to 12 days in Williams medium, under conventional cell culture conditions (37° C., 5% CO2). […]
To evaluate the effect of (1), (6) or (9) on hair growth, the hairs were photographed and their lengths measured using image analysis software. Thus, the growth of the hairs between D0 and D11/D12 could be calculated and compared with that of the untreated control. At the end of the treatments (D11 or D12), the hairs were collected and frozen or fixed for immunolabeling and histological staining.

[12] = system: SCF; experiment: SCF secretion by HHFK (ELISA/BioPlex); type: cell-based, human; details: 10^−7 M, 48h
Experimental: as §1, §2

[13] = system: HGF; experiment: HGF secretion by HHFK (ELISA/BioPlex); type: cell-based, human; details: 10^−7 M, 48h
Experimental: as §1, §2

[14] = system: PDGF; experiment: PDGF secretion by HFDPC (ELISA/BioPlex); type: cell-based, human; details: 48h
Experimental: as §1, §2

[15] = system: genes whose expression is reduced in subjects characterized by alopecia; experiment: qPCR (TLDA) overall statement, genes involved in alopecia, HFDPC; type: cell-based, human; details: summary of Table 1
Experimental: as §3, §4, §5, §6

[16] = system: VEGF; experiment: VEGF secretion by HFDPC (ELISA/BioPlex); type: cell-based, human; details: 48h
Experimental: as §1, §2

[17] = system: BMP2; experiment: qPCR (TLDA) BMP2 gene expression in HFDPC; type: cell-based, human; details: peptide 10^−9, 24 hours, relative to untreated controls
Experimental: as §3, §4, §5, §6

[18] = system: NGF; experiment: NGF secretion by HFDPC (ELISA/BioPlex); type: cell-based, human; details: 10^−9 M, 48h
Experimental: as §1, §2

[19] = system: HGF; experiment: HGF secretion by HFDPC (ELISA/BioPlex); type: cell-based, human; details: 10^−9 M, 48h
Experimental: as §1, §2

[20] = system: HGF; experiment: HGF secretion by NHDF (ELISA/BioPlex); type: cell-based, human; details: 10^−9 M, 48h
Experimental: as §1, §2

“Palm-Ala-Ala-Pro-Ala-Lys-NH2 (Palmitoyl-AAPAK-NH2; SMILES CCCCCCCCCCCCCCCC(=O)N[C@@H](C)C(=O)N[C@@H](C)C(=O)N1CCC[C@H]1C(=O)N[C@@H](C)C(=O)N[C@@H](CCCCN)C(N)=O) [(6)]” was tested. Which “VEGF secretion, percent increase relative to untreated control” value [1] did it give?
The value was “VEGF 15%”.

What about the “NGF secretion, percent increase relative to untreated control” value ([2]; 10^−5 M) of the same substance?
Its value is “NGF 51%”.

And the “NGF secretion, percent increase relative to untreated control” value ([2]; 10^−7 M)?
The value was “NGF 12%”.

And the “stimulation of proliferation of NHDF” value [3]?
The value was “+11%”.

What about the “BMP2 secretion, percent increase relative to untreated control” value [4] of the same substance?
Its value is “BMP2 44%”.

And the “NGF secretion, percent increase relative to untreated control” value [5]?
The value was “NGF 10%”.

And the “% stimulation IGF1 gene expression” value [6]?
The value was 94% (10^−9).

What about the “VEGF secretion, percent increase relative to untreated control” value ([7]; 10^−7 M) of the same substance?
The value was “VGF 407%”.

And the “% stimulation VEGF gene expression” value [8]?
Its value is 24%.

And the “KGF secretion, percent increase relative to untreated control” value ([9]; 10^−5 M)?
The value was “KGF 7%”.

What about the “KGF secretion, percent increase relative to untreated control” value ([9]; 10^−7 M) of the same substance?
The value was “KGF 13%”.

And the “SCF secretion, percent increase relative to untreated control” value [10]?
The value was “SCF 8%”.

And the “Growth at D 11/D 12 Vs Control” value ([11]; 10^−7 M)?
The value was “+28%”.

And the “Growth at D 11/D 12 Vs Control” value ([11]; 10^−9 M)?
Its value is “+38%#”.

What about the “growth increase compared with minoxidil sulphate” value ([11]; peptide 10^−9M, minoxidil sulphate 10^−5 M) of the same substance?
Its value is “higher than that obtained after treatment with minoxidil sulphate”.

What about the “hair growth after 11 to 12 days of treatment ex vivo (in words)” value ([11]; summary of Table 3) of the same substance?
Its value is “stimulate hair growth”.

What about the “SCF secretion, percent increase relative to untreated control” value [12] of the same substance?
The value was “SCF 9%”.

And the “HGF secretion, percent increase relative to untreated control” value [13]?
Its value is “HGF 52%”.

And the “PDGF secretion, percent increase relative to untreated control” value ([14]; 10^−5 M)?
Its value is “PDGF 15%”.

What about the “PDGF secretion, percent increase relative to untreated control” value ([14]; 10^−7 M) of the same substance?
The value was “PDGF 38%”.

And the “stimulation of genes whose expression is reduced in alopecia (in words)” value [15]?
The value was “stimulate several genes”.

And the “VEGF secretion, percent increase relative to untreated control” value ([16]; 10^−5 M)?
The value was “VEGF 18%”.

What about the “% stimulation BMP2 gene expression” value [17] of the same substance?
The value was 116% (10^−9).

With “Palm-Ala-Arg-Pro-Ala-Lys-NH2 (Palmitoyl-ARPAK-NH2; SMILES CCCCCCCCCCCCCCCC(=O)N[C@@H](C)C(=O)N[C@@H](CCCNC(=N)N)C(=O)N1CCC[C@H]1C(=O)N[C@@H](C)C(=O)N[C@@H](CCCCN)C(N)=O) [(3)]” as the substance, how does the “NGF secretion, percent increase relative to untreated control” value ([2]; 10^−9 M) read?
The value was “NGF 89%”.

And the “VEGF secretion, percent increase relative to untreated control” value ([7]; 10^−9 M)?
The value was “VEGF 48%”.

What about the “% stimulation VEGF gene expression” value [8] of the same substance?
Its value is 83%.

And the “KGF secretion, percent increase relative to untreated control” value ([9]; 10^−7 M)?
The value was “KGF 53%”.

What about the “KGF secretion, percent increase relative to untreated control” value ([9]; 10^−9 M) of the same substance?
The value was “KGF 45%”.

What about the “NGF secretion, percent increase relative to untreated control” value [18] of the same substance?
Its value is “NGF 6%”.

And the “HGF secretion, percent increase relative to untreated control” value [19]?
Its value is “HGF 33%”.

What about the “PDGF secretion, percent increase relative to untreated control” value ([14]; 10^−9 M) of the same substance?
Its value is “PDGF 39%”.

And the “HGF secretion, percent increase relative to untreated control” value [20]?
The value was “HGF 5%”.

And the “stimulation of genes whose expression is reduced in alopecia (in words)” value [15]?
Its value is “stimulate several genes”.

What about the “VEGF secretion, percent increase relative to untreated control” value ([16]; 10^−7 M) of the same substance?
Its value is “VEGF 9%”.
